Reference: patent US20110054031A1, “Ophthalmic NSAIDS as Adjuvants” (ISTA Pharmaceuticals, Inc., priority 2008, published 2011)

Assays:
[1] = target: T1, COX-2 (Homo sapiens, UniProt P35354); test: COX-2 enzyme inhibition (Table 1, relative potency of ocular NSAIDs); type: biochemical; conditions: ratio of IC50 values
T1 sequence (P35354 18-604): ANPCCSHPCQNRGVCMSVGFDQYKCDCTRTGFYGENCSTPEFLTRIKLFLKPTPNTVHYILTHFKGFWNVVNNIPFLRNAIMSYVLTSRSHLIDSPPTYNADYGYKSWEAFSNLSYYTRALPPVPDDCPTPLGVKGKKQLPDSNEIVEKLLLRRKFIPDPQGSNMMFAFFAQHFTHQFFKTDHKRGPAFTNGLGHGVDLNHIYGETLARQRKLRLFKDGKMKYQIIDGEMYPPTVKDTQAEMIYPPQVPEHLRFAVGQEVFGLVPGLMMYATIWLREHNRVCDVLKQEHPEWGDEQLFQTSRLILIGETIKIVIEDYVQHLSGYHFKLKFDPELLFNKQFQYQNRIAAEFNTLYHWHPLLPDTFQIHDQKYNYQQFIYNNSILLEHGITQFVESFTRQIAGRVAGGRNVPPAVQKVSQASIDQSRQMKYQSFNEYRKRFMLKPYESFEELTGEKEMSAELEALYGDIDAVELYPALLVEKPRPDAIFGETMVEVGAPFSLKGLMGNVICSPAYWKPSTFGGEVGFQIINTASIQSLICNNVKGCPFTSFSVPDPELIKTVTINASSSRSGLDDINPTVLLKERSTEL
Source text: NSAIDs vary in their relative potency against COX-1 and COX-2. […] Several in vitro assays are used to determine IC50 values, making the values dependent upon the animal model (tissue and stimulus) used in the experiment and variable between laboratories. Thus, it is important that the assay type is defined when making comparisons between IC50 measurements.

[2] = target: COX-1 (Homo sapiens, UniProt P23219); conditions: cited from earlier work
[3] = target: T1, COX-2; conditions: cited from earlier work
[4] = tested on: choroidal neovascularization (CNV); test: Laser photocoagulation-induced choroidal neovascularization in mice; type: in vivo, C57BL/6J mice; conditions: 2 weeks of treatment after laser burn, versus saline, BF 0.1% topical 4 μL four times per day, sVEGFR-1/Fc 250 ng
Description: Methods: Six-week female C57BL/6J mice received laser burns with 514-argon laser at the posterior retina; 19 mice with successful burns were randomly assigned to 1 of 3 treatment groups: BF 0.1%, saline with or without 250 ng sVEGFR-1/Fc immediately after laser burn. Mice were treated with 4 μL of BF 0.1% or saline four times per day for 2 weeks. Then deeply anaesthetized mice were perfused with 50 mg/mL flourescein-labeled dextran, eyes were enucleated and fixed in buffered formalin. Flat mounts of the RPE-choroid-sclera were observed by fluorescence microscope. Total area of hyperfluorescent neovascualature was measured using image-analysis software

[5] = target: T2, COX-2 purified from rabbit alveolar macrophage (Oryctolagus cuniculus, UniProt O02768); conditions: cited from earlier work
T2 construct: from tissue; host or cells: rabbit alveolar macrophage
T2 sequence (O02768 18-604): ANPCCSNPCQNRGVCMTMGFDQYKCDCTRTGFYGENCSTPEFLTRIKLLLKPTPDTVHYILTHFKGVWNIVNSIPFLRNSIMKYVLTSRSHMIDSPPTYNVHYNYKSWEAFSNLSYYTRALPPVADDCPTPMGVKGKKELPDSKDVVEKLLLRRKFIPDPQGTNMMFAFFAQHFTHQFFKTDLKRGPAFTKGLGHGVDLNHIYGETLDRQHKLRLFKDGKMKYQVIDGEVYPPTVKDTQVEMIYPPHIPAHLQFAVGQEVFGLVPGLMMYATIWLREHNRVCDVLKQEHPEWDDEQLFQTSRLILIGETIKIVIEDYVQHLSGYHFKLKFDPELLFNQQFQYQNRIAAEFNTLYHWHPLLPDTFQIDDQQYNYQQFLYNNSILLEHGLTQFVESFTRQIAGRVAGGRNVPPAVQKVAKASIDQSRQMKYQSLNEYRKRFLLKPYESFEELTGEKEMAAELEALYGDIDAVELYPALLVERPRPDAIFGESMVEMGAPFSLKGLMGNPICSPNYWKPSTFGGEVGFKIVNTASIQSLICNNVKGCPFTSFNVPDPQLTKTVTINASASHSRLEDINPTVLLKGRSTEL

[6] = target: T3, human recombinants COX-2 (Homo sapiens, UniProt P35354); conditions: relative to ketorolac; cited from earlier work
T3 sequence (P35354 18-604): T1 sequence (P35354 18-604)

[7] = tested on: prostaglandin synthesis; conditions: in vitro, relative to indomethacin; cited from earlier work
[8] = eye drops; cited from earlier work
[9] = cited from earlier work

COX-1, sequence (P23219 24-599): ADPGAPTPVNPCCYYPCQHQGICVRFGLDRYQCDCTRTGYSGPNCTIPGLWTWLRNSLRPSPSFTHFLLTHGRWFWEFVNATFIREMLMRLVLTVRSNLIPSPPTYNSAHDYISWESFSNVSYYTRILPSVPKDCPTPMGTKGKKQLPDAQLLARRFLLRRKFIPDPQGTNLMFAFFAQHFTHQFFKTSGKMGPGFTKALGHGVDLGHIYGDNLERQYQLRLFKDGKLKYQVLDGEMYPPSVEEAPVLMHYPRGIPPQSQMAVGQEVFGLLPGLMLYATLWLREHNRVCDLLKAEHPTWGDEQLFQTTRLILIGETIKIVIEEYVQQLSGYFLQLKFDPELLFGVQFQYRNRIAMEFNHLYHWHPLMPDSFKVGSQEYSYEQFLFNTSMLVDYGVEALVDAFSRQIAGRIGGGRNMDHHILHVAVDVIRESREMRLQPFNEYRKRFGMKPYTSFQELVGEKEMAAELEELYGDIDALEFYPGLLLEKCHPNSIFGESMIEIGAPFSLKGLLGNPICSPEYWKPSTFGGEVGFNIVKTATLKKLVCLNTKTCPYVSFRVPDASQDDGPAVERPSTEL

Compound: NC(CO)(CO)CO.O=C(c1ccccc1)c1ccc2n1CCC2C(=O)O (racemic) [ketorolac, (±)-5-benzoyl-2,3-dihydro-1H pyrrolizine-1-carboxylic acid, 2-amino-2-(hydroxymethyl)-1,3-propanediol salt (1:1)]
- Ratio COX-1/COX-2 [1]: 0.167
- IC50 [2]: 20 nM
- IC50 [3]: 120 nM

Compound: Nc1c(CC(=O)[O-])cccc1C(=O)c1ccc(Br)cc1.Nc1c(CC(=O)[O-])cccc1C(=O)c1ccc(Br)cc1.O.O.O.[Na+].[Na+] [bromfenac, sodium 2-amino-3-(4-bromobenzoyl)phenylacetate sesquihydrate]
- reduction of area of choroidal neovascularization (CNV lesions) [4]: 71%
- IC50 [3]: 23 nM
- inhibitory effect on COX-2, times greater than amfenac ([5]; relative to amfenac): 6.5 times
- inhibitory effect on COX-2, times greater than diclofenac ([5]; relative to diclofenac): 3.7 times
- inhibitory effect on COX-2, times more potent than ketorolac [6]: 18 times
- inhibition of prostaglandin synthesis, times greater than indomethacin [7]: approximately 12 times
- stability in aqueous solution [8]: stable for a long period of time

Compound: NC(=O)Cc1cccc(C(=O)c2ccccc2)c1N [nepafenac, 2-amino-3-benzoyl-benzeneacetamide]
- Ratio COX-1/COX-2 [1]: 1.67
- IC50 [2]: 250 nM
- IC50 [3]: 150 nM

Compound: Lucentis: recombinant humanized IgG1 kappa isotype monoclonal antibody fragment designed for intravitreal use
- rate of arterial thromboembolic events ([9]; Lucentis clinical trials): < 4%
- serious adverse reactions related to the intravitreal injection procedure ([9]; endophthalmitis, rhegmatogenous retinal detachments, iatrogenic traumatic cataracts): < 0.1 % of injections
- time after intravitreal injection at which increases in intraocular pressure were noted ([9]; human, in vivo): ≤ 60 min
- other serious ocular adverse reactions ([9]; intraocular inflammation and increased intraocular pressure): < 2 % of patients
